Results published in article PMC6934184, “Selective DNA-PKcs inhibition extends the therapeutic index of localized radiotherapy and chemotherapy” (The Journal of Clinical Investigation, 2019).

Molecular target: T1, STK32C (YANK3) (Homo sapiens, UniProt Q86UX6)
T1 construct: purchased Thermo Fisher Scientific (Life Technologies) SelectScreen
Assay: SelectScreen LanthaScreen
Type: binding
Details: read-out: % displacement
In short: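 Percent values come from Thermo SelectScreen profiling of NU5455, combining activity and binding assays. CSF1R was run in Z'LYTE format at Km app ATP, and CAMK1 in Adapta format with ATP listed at 10.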

T1 sequence (Q86UX6 whole entry): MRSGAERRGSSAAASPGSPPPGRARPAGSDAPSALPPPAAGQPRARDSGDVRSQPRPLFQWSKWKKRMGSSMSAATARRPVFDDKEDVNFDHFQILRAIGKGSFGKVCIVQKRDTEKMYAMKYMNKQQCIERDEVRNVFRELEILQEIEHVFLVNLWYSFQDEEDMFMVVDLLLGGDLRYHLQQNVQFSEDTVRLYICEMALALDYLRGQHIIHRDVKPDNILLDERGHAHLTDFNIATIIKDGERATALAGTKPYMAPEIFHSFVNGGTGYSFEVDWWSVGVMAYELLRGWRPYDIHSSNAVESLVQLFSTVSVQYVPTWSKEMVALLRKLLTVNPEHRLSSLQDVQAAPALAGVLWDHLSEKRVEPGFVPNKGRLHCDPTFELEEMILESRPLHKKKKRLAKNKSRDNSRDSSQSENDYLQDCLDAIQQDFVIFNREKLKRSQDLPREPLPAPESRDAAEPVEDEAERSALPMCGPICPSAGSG

CN(C(=O)CN1CCOCC1)c1ccc2sc3c(-c4cccc5c(=O)cc(N6CC7CCC(C6)O7)oc45)cccc3c2c1 [NU5455]
inhibition at 1 µM: 4.2%
